Results on five compounds are retold here after paper PMC8700061, “Fragment-Sized and Bidentate (Immuno)Proteasome Inhibitors Derived from Cysteine and Threonine Targeting Warheads” (Cells, 2021).

Series [1] in a line: HPLC-based stability assay in PBS. The format is physicochemical. As to conditions: PBS pH 7.4. As to the method: (§1) GSH reactivity assay was performed as described by Petri et al.; 500 μM solution of compound (PBS buffer pH 7.4, 10% MeCN, 250 μL) with 200 μM solution of indoprofen as internal standard were added to 10 mM GSH solution (dissolved in PBS buffer, 250 μL) in a 1:1 ratio. The final concentration was 250 μM compound, 100 μM indoprofen, 5 mM GSH and 5% MeCN (500 μL). The final mixture was analyzed by HPLC after 0, 1, 2, 4, 8, 12, 24, 48, and 72 h. The degradation kinetics were also studied using the method described in [24], except that pure PBS buffer was used instead of GSH solution. In this experiment, the final concentration of the mixture was 250 μM fragment, 100 μM indoprofen and 5% MeCN. The area under the curve (AUC) values were determined by integrating the HPLC spectra and then corrected with the internal standard.

Series [2] has as its system GSH. In words: HPLC-based GSH reactivity assay. Particulars: 5 mM glutathione (GSH) in PBS buffer; 250 µM compound, 5 mM GSH, PBS pH 7.4; read-out: Reactivity with GSH (HPLC-based assay), t1/2. The format is physicochemical. As to the method: as §1, with “The final concentration was 250 μM compound, 100 μM indoprofen, 5 mM GSH and 5% MeCN (500 μL).” left out, “In this experiment, the final concentration of the mixture was 250 μM fragment, 100 μM indoprofen and 5% MeCN.” left out

Some results are limits rather than exact numbers.

Consider `CC(C)C[C@H](NC(=O)CCn1c(C#N)nc2ccccc21)B1O[C@@H]2C[C@@H]3C[C@@H](C3(C)C)[C@]2(C)O1` [Compound 30], for which the “Stability in Buffer (HPLC-based assay)” value in series [1] is “stable ^b,c”.

As for `COc1cccc2oc(C#N)nc12` [Compound 6], the half-life at 250 µM in series [2] was less than 3 min. Further, the “Stability in Buffer (HPLC-based assay)” value in series [1] is “stable ^c,d”.

On to `CC(C)C[C@H](NC(=O)Cc1ccc2oc(C#N)nc2c1)B1O[C@@H]2C[C@@H]3C[C@@H](C3(C)C)[C@]2(C)O1` [Compound 39], for which the half-life at 250 µM in series [2] fell in the range of 3 to 60 min. In series [1], the “Stability in Buffer (HPLC-based assay)” value is listed as “stable ^b,c”.

For `CC(C)C[C@H](NC(=O)CCn1c(C#N)nc2cccc(Cl)c21)B1O[C@@H]2C[C@@H]3C[C@@H](C3(C)C)[C@]2(C)O1` [Compound 38], the “Stability in Buffer (HPLC-based assay)” value in series [1] is on record as “stable ^b,c”.

Turning to `CC(C)C[C@H](NC(=O)CCCn1c(C#N)nc2ccccc21)B1O[C@@H]2C[C@@H]3C[C@@H](C3(C)C)[C@]2(C)O1` [Compound 31], in series [1], the “Stability in Buffer (HPLC-based assay)” value is on record as “stable ^b,c”.
